Data published in PubChem BioAssay AID1963450 (Molecular Pharmacology Branch, DTP, NCI, 2024).
Where “and” joins values, the source holds several entries; their conditions need not be identical. Equal entries are not always repeated.

System: 556581-035-R-J1-PDC complex spheroid growth
Test: Anticancer human tumor 556581-035-R-J1-PDC patient-derived ovarian carcinoma cell line growth inhibition [Asc]
Details: for viability, T/C: stronger effect = lower value; active = viability on the fitted dose curve at most 10% of control; inactive = the rest
Method in brief: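 Spheroid model: tumor line + HUVEC + hMSC. Single agents and combinations; top conc. at/near clinical Cmax (10 microM if undetermined), half-log dilutions. DMSO stocks at 800-fold test concentration.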
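Also: spheroids exposed to agents for 7 days before viability read.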

CNC(C)C(=O)NC1CN(S(=O)(=O)c2cccc(S(=O)(=O)N3CCC4CCC(C(=O)NC(c5ccccc5)c5ccccc5)N4C(=O)C(NC(=O)C(C)NC)C3)c2)CCC2CCC(C(=O)NC(c3ccccc3)c3ccccc3)N2C1=O (stereo not given)
> 1 µM: IC50 (compound alone, run of 10/24/2022) | IC50 (compound alone, run of 11/15/2022) | IC50 (curve of compound)
inactive: viability, T/C (compound 0.00316 µM) 96.2% and 82.3% and 87.2% | viability, T/C (compound 0.0316 µM) 89.3% [middle of 14 runs] | viability, T/C (compound 0.316 µM) 74.3% [middle of 14 runs]

C=C(F)C(=O)N1CCN(c2nc(OCC3CCCN3C)nc3c2CCN(c2cccc4cccc(Cl)c24)C3)CC1CC#N (stereo not given)
15% and 3.22% and 1%: viability, T/C (compound 10 µM)
inactive: viability, T/C (compound 0.0316 µM) 77.9% and 98.7% and 100% | viability, T/C (compound 0.1 µM) 113% and 115% and 91.5% | viability, T/C (compound 0.316 µM) 102% and 110% and 95% | viability, T/C (compound 1 µM) 90.5% and 87% and 93.3% | viability, T/C (compound 3.16 µM) 48.4% and 64.9% and 55.1%
3.02 µM and 4.07 µM and 3.52 µM: IC50 (curve of compound)

Cn1ncnc1[C@H]1c2n[nH]c(=O)c3cc(F)cc(c23)N[C@@H]1c1ccc(F)cc1
> 0.1 µM: IC50 (curve of compound)
inactive: viability, T/C (compound 0.000316 µM) 100% and 86.8% and 84.9% | viability, T/C (compound 0.001 µM) 111% and 95.3% and 97% | viability, T/C (compound 0.00316 µM) 97.7% and 107% and 74.9% | viability, T/C (compound 0.01 µM) 106% and 99.9% and 76.3% | viability, T/C (compound 0.0316 µM) 105% and 86.6% and 94.5% | viability, T/C (compound 0.1 µM) 99.7% and 85.6% and 94.2%

Cn1ncnc1[C@H]1c2n[nH]c(=O)c3cc(F)cc(c23)N[C@@H]1c1ccc(F)cc1 + Cc1c(S(C)(=O)=O)c(-c2cc(F)cc(N3CCN(c4ccc(NS(=O)(=O)c5ccc(NC(CCN6CCC(C(=O)OCCCP(=O)(O)O)CC6)CSc6ccccc6)c(S(=O)(=O)C(F)(F)F)c5)cc4)CC3)c2)c(-c2ccc(Cl)cc2)n1C(C)C
inactive: viability, T/C (second compound 0.1 µM, first compound 0.000316 µM) 67.5% | viability, T/C (second compound 0.1 µM, first compound 0.001 µM) 88% | viability, T/C (second compound 0.1 µM, first compound 0.00316 µM) 94.8% | viability, T/C (second compound 0.1 µM, first compound 0.01 µM) 78% | viability, T/C (second compound 0.1 µM, first compound 0.0316 µM) 84.4% | viability, T/C (second compound 0.1 µM, first compound 0.1 µM) 77.2% | viability, T/C (second compound 0.316 µM, first compound 0.000316 µM) 84.9% | viability, T/C (second compound 0.316 µM, first compound 0.001 µM) 81.1% | viability, T/C (second compound 0.316 µM, first compound 0.00316 µM) 72% | viability, T/C (second compound 0.316 µM, first compound 0.01 µM) 66.6% | viability, T/C (second compound 0.316 µM, first compound 0.0316 µM) 79.9% | viability, T/C (second compound 0.316 µM, first compound 0.1 µM) 84% | viability, T/C (second compound 1 µM, first compound 0.000316 µM) 79.5% | viability, T/C (second compound 1 µM, first compound 0.001 µM) 84.2% | viability, T/C (second compound 1 µM, first compound 0.00316 µM) 78.3% | viability, T/C (second compound 1 µM, first compound 0.01 µM) 79.8% | viability, T/C (second compound 1 µM, first compound 0.0316 µM) 73.7% | viability, T/C (second compound 1 µM, first compound 0.1 µM) 72.1% | viability, T/C (second compound 3.16 µM, first compound 0.000316 µM) 74.3% | viability, T/C (second compound 3.16 µM, first compound 0.001 µM) 73.2% | viability, T/C (second compound 3.16 µM, first compound 0.00316 µM) 70.2% | viability, T/C (second compound 3.16 µM, first compound 0.01 µM) 72.9% | viability, T/C (second compound 3.16 µM, first compound 0.0316 µM) 64.4% | viability, T/C (second compound 3.16 µM, first compound 0.1 µM) 81.8% | viability, T/C (second compound 10 µM, first compound 0.000316 µM) 86.4% | viability, T/C (second compound 10 µM, first compound 0.001 µM) 69.2% | viability, T/C (second compound 10 µM, first compound 0.00316 µM) 66.5% | viability, T/C (second compound 10 µM, first compound 0.01 µM) 64.5% | viability, T/C (second compound 10 µM, first compound 0.0316 µM) 62.7% | viability, T/C (second compound 10 µM, first compound 0.1 µM) 64.9%
> 0.1 µM: IC50 (curve of first compound, second compound 0.1 µM) | IC50 (curve of first compound, second compound 0.316 µM) | IC50 (curve of first compound, second compound 1 µM) | IC50 (curve of first compound, second compound 3.16 µM) | IC50 (curve of first compound, second compound 10 µM)
